# Data reported in patent US20260306464A1, “LINAPRAZAN GLURATE FOR TREATING GASTROESOPHAGEAL REFLUX DISEASE (GERD)” (Cinclus Pharma Holding AB (publ), priority 2023, published 2026).
# Experiment: LEED study: heartburn assessed by mRESQ-eDiary
# Type: in vivo, human
# Conditions: for % at most mild symptoms 24-hour days (mean) / % heartburn-free 24-hour days (mean) / Patients (%) totally free from heartburn / Patients (%) with at most mild heartburn / Patients (%) with non-mild heartburn: week 4, erosive patients all LA grades
# Text: Relief of reflux-related symptoms may be assessed based on the modified Reflux Symptom Reflux Questionnaire-electronic Diary (mRESQ-eDiary), which is an electronic symptom diary developed for use in partial responders to proton pump inhibitors. mRESQ-eD has three domains (i.e., heartburn, other GERD signs/symptoms and regurgitations/reflux) and eight items (Andrae et al., Clin. Transl. Gastroenterol. 2020, 11(1): e00117).
# The study was a randomized, double-blind, active comparator-controlled study with a parallel group design including four arms with linaprazan glurate and one arm with lansoprazole. Pharmacokinetic (PK) blood sampling pre-dose, close before the first and the second dose administration was performed at Day 7, Day 14 and Day 28 visits days in all patients. 248 patients with erosive esophagitis due to GERD LA grade C or D and patients with erosive esophagitis due to GERD LA grade A or B with at least partial symptom response but still endoscopically unhealed after 8 weeks history of standard treatment healing course with PPI, were randomized.
# Randomization to one of the treatments with linaprazan glurate 25 mg, 50 mg, 75 mg, 100 mg twice daily (BID), or lansoprazole 30 mg once daily (QD) was based on a 1:1:1:1:1 scheme. One site could not enroll more than about 20% of the overall number of patients (48 patients per site).
# The duration of each patient's participation in the study, including screening, blind treatment period and open-label treatment period, was approximately 60 days. The patients were randomized for 4 weeks (28 days, −2/+5 days) of double-blind treatment and were provided with IMP for 35 days (including one additional blister pack dispensed at Visit 2/Day 0) to allow for treatment up to the visit window. […] Following the endoscopic evaluation, all patients received subsequent 4 weeks of open-label treatment with lansoprazole 30 mg QD. Repeated symptom evaluation to detect symptom pattern was assessed during this period.
# Four doses of linaprazan glurate (25 mg, 50 mg, 75 mg, 100 mg, and dummies) were administered as tablets twice daily. The active comparator lansoprazole 30 mg and its dummy were administered as capsules once daily in the morning. The study drugs were taken with 100 mL of noncarbonated water at least 30 minutes prior to meals. The duration of double-blind treatment was 28 days −2/+5 days. To blind treatment, each patient received 2 tablets (containing doses of linaprazan glurate (LG) or its dummy) and one capsule (containing lansoprazole or its dummy) in the morning and 2 tablets (containing doses of linaprazan glurate (LG) or its dummy) in the evening, according to the scheme below:
# A secondary objective of the study was the safety and tolerability of the four dose levels of linaprazan glurate and lansoprazole, with lansoprazole serving as the active comparator. Another secondary objective of the study was the reflux related symptom pattern during the initial 4 weeks treatment with four dose levels of linaprazan glurate and with lansoprazole, and the symptom pattern during the subsequent additional 4 weeks (weeks 5-8) open-label treatment with lansoprazole 30 mg QD. Heartburn-free 24-hour days and 24-hour days with at most mild heartburn symptoms were assessed based on modified eDiary (mRESQ-eD), including splits into day- and nighttime evaluations.
# Reflux related symptoms were assessed based on a modified RESQ-eDiary (mRESQ-eD). Patients were asked to report every 12-hours, once before the morning dose and once before the evening dose of the Investigational Medicinal Product (IMP).
structure (smiles),measurement,setting,value
"Cc1cccc(C)c1CNc1cc(C(=O)NCCOC(=O)CCCC(=O)O)cn2c(C)c(C)nc12 [linaprazan glurate, 5-{2-[({8-[(2,6-dimethylbenzyl)amino]-2,3-dimethylimidazo[1,2-a]pyridine-6-yl}carbonyl)-amino]ethoxy}-5-oxopentanoic acid]","heartburn severity, rank among groups","FAS Erosive, first week, morning and evening, LG 75 mg BID",lowest heartburn severity
same,percentage of symptom free days (highest of groups),"FAS Erosive, week 1, LG 75 mg BID",33.3%
same,heartburn-free days vs lansoprazole,"FAS Erosive, week 1 to 4, all LG groups",more heartburn-free days
same,percentage of symptom free days (highest of groups),"FAS Erosive, week 2, LG 75 mg BID",57.2%
same,percentage of symptom free days (highest of groups),"FAS Erosive, week 3, LG 75 mg BID",62.6%
same,percentage of symptom free days (highest of groups),"FAS Erosive, week 4, LG 100 mg BID",65.2%
same,percentage of heartburn-free days (highest of groups),"FAS Erosive, week 5 open-label lansoprazole, former LG 75 mg group",72.6%
same,heartburn-free days vs lansoprazole,"FAS Erosive, week 5 to 8 open-label (all on lansoprazole 30 mg QD), former LG groups",more heartburn-free days
same,percentage of heartburn-free days (highest of groups),"FAS Erosive, week 6 open-label lansoprazole, former LG 75 mg group",73.0%
same,percentage of heartburn-free days (highest of groups),"FAS Erosive, week 7 open-label lansoprazole, former LG 25 mg group",81.9%
same,percentage of heartburn-free days (highest of groups),"FAS Erosive, week 8 open-label lansoprazole, former LG 25 mg group",87.6%
same,"severity grade of heartburn, rank among groups","FAS, first week, morning and evening, LG 75 mg BID",lowest severity grade
same,percentage of symptom free days (highest of groups),"FAS, week 1, LG 75 mg BID",29.2%
same,heartburn-free days vs lansoprazole,"FAS, week 1 to 4, all LG groups",more heartburn-free days
same,percentage of symptom free days (highest of groups),"FAS, week 2, LG 75 mg BID",52.9%
same,percentage of symptom free days (highest of groups),"FAS, week 4, LG 100 mg BID",62.2%
same,percentage of heartburn-free days (highest of groups),"FAS, week 5 open-label lansoprazole, former LG 75 mg group",69.6%
same,heartburn-free days vs lansoprazole,"FAS, week 5 to 8 open-label (all on lansoprazole 30 mg QD), former LG groups",more heartburn-free days
same,percentage of heartburn-free days (highest of groups),"FAS, week 7 open-label lansoprazole, former LG 25 mg group",79.4%
same,percentage of heartburn-free days (highest of groups),"FAS, week 8 open-label lansoprazole, former LG 25 mg group",82.4%
same,"heartburn-free days, rank among groups","LA Grade A/B, week 1 to 3, LG 75 mg BID",highest percentage of heartburn-free days
same,"heartburn-free days, rank among groups","LA Grade A/B, week 5 open-label lansoprazole, former LG 75 mg group",highest percentage of heartburn-free days
same,"heartburn-free days, rank among groups","LA Grade A/B, weeks 7 and 8 open-label lansoprazole, former LG 25 mg group",highest percentage of heartburn-free days
same,"heartburn-free days, rank among groups","LA Grade C/D, week 1 and 4, LG 50 mg BID",highest percentage of heartburn-free days
same,"heartburn-free days, rank among groups","LA Grade C/D, week 2, LG 75 mg BID",highest percentage of heartburn-free days
same,"heartburn-free days, rank among groups","LA Grade C/D, week 3, LG 100 mg BID",highest percentage of heartburn-free days
same,"heartburn-free days, rank among groups","LA Grade C/D, week 5 open-label lansoprazole, former LG 50 mg group",highest percentage of heartburn-free days
same,"heartburn-free days, rank among groups","LA Grade C/D, week 6 to 8 open-label lansoprazole, former LG 75 mg group",highest percentage of heartburn-free days
same,% at most mild symptoms 24-hour days (mean),LG 25 mg BID (N = 21),96%
same,% heartburn-free 24-hour days (mean),LG 25 mg BID (N = 21),52%
same,Patients (%) totally free from heartburn,LG 25 mg BID (N = 21),45%
same,Patients (%) with at most mild heartburn,LG 25 mg BID (N = 21),97%
same,Patients (%) with non-mild heartburn,LG 25 mg BID (N = 21),6%
same,% at most mild symptoms 24-hour days (mean),LG 50 mg BID (N = 27),96%
same,% heartburn-free 24-hour days (mean),LG 50 mg BID (N = 27),56%
same,Patients (%) totally free from heartburn,LG 50 mg BID (N = 27),44%
same,Patients (%) with at most mild heartburn,LG 50 mg BID (N = 27),97%
same,Patients (%) with non-mild heartburn,LG 50 mg BID (N = 27),6%
same,% at most mild symptoms 24-hour days (mean),LG 75 mg BID (N = 20),97%
same,% heartburn-free 24-hour days (mean),LG 75 mg BID (N = 20),56%
same,Patients (%) totally free from heartburn,LG 75 mg BID (N = 20),50%
same,Patients (%) with at most mild heartburn,LG 75 mg BID (N = 20),87%
same,Patients (%) with non-mild heartburn,LG 75 mg BID (N = 20),13%
same,% at most mild symptoms 24-hour days (mean),LG 100 mg BID (N = 19),100%
same,% heartburn-free 24-hour days (mean),LG 100 mg BID (N = 19),76%
same,Patients (%) totally free from heartburn,LG 100 mg BID (N = 19),63%
same,Patients (%) with at most mild heartburn,LG 100 mg BID (N = 19),92%
same,Patients (%) with non-mild heartburn,LG 100 mg BID (N = 19),8%
